The assay addresses T1, F508del (Homo sapiens, UniProt P13569, DEL508-508).
T1 construct: expressed in transfected cells
As to the kind of experiment: Protocol 2: FRET membrane potential optical assay (VIPR), identification of correction compounds. It is filed as cell-based. The gist of the method: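 Mouse NIH3T3 cells, stable F508del; cpd 16 hrs, 37° C., serum-free; pos ctrl 27° C. 16 hrs. Rinse in Krebs Ringers, dye load, then add 10 μM forskolin + 20 μM genistein with Cl^−-free (gluconate) medium; depolarization by FRET voltage dyes.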

[1] abbreviates: Table 3, compounds of Table 1 as modulators of CFTR activity, protocol not stated.
[2] abbreviates: F508del CFTR modulator activity, compounds of Table 1, read-out: EC30.

Where two headings read alike, the source gives them in different places.

From patent publication US10758534B2 (Vertex Pharmaceuticals Incorporated, priority 2014, dated 2020) come the findings set out here.

T1 sequence (P13569 with tags, fused parts or gaps DEL508-508): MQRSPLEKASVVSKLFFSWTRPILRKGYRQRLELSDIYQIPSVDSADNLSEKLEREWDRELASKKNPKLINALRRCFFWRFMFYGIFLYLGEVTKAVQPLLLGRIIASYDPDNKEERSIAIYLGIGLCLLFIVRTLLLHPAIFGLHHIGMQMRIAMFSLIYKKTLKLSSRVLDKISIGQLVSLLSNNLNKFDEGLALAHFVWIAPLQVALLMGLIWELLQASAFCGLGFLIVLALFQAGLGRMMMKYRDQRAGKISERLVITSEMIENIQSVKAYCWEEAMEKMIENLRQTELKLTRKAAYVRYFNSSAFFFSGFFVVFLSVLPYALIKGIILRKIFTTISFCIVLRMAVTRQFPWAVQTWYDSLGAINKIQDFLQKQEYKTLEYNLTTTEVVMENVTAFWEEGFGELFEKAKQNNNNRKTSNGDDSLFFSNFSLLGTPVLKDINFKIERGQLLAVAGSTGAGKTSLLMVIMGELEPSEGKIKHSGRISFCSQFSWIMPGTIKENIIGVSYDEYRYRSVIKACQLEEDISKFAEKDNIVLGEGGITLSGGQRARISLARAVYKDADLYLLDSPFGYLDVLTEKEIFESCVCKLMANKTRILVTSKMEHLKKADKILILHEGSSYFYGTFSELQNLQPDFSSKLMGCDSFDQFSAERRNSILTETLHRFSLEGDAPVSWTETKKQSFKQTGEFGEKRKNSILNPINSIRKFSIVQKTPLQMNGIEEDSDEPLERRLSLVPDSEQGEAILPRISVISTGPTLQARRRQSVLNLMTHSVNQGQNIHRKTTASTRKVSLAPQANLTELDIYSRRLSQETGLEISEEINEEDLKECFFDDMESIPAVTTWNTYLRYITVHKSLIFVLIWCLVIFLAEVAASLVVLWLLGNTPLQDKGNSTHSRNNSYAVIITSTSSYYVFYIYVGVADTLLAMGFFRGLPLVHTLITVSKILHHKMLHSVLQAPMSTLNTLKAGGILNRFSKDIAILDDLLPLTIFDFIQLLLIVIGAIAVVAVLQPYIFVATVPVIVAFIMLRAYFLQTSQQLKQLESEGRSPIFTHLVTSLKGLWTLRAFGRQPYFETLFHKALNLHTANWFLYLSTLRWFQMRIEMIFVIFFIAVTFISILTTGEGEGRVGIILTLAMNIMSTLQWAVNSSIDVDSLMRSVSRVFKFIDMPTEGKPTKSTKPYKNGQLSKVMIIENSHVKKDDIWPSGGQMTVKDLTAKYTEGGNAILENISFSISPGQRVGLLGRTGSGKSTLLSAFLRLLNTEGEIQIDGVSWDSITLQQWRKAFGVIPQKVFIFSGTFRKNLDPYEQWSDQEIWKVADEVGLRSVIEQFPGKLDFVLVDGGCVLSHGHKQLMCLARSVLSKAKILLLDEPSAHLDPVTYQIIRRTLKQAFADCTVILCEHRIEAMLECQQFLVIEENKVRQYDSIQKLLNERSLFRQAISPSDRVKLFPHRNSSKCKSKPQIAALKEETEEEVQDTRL

Take `Cc1cc(C)c(CN2CCCc3ccccc3C2C(=O)NS(=O)(=O)c2cccc(N)n2)c(C)c1` (stereo not drawn) [Compound 696, N-[(6-amino-2-pyridyl)sulfonyl]-2-[(2,4,6-trimethylphenyl)methyl]-1,3,4,5-tetrahydro-2-benzazepine-1-carboxamide]: under setting [1], the EC30 result is on record as “+++ (“+++” means <3 uM)”.

As for `Cc1cc(C)c(Oc2nc(C(C)(C)C)ccc2C(=O)N=S(N)(=O)c2cccc(N)n2)c(C)c1` (stereo not drawn) [Compound 515, N-[amino-(6-amino-2-pyridyl)-oxo-$1^6-sulfanylidene]-6-tert-butyl-2-(2,4,6-trimethylphenoxy)pyridine-3-carboxamide], under setting [1], the EC30 result was “+++ (“+++” means <3 uM)”.

`CC1CN(c2ncccc2C(=O)NS(=O)(=O)c2cccc(Oc3cccc(N(C)C)c3)n2)C(C)(C)C1` (stereo not drawn) [Compound 2443, N—[[6-[3-(dimethylamino)phenoxy]-2-pyridyl]sulfonyl]-2-(2,2,4-trimethylpyrrolidin-1-yl)pyridine-3-carboxamide]: the EC30 under setting [2] is less than 3 µM.

In the case of `COc1cc(-c2ccc(C(=O)NS(=O)(=O)c3cccnc3N)c(N3C[C@@H](C)CC3(C)C)n2)ccc1O` [Compound 2614, N-[(2-amino-3-pyridyl)sulfonyl]-6-(4-hydroxy-3-methoxy-phenyl)-2-[(4S)-2,2,4-trimethylpyrrolidin-1-yl]pyridine-3-carboxamide], the EC30 under setting [2] fell in the range of 3 to 10 µM.

For `Cc1cccc(C)c1Cn1nc(-c2ccc(N(C)C)cc2)cc1C(=O)NS(=O)(=O)c1ccccc1` [Compound 76, N-(benzenesulfonyl)-5-(4-dimethylaminophenyl)-2-[(2,6-dimethylphenyl)methyl]pyrazole-3-carboxamide], under setting [1], the EC30 result is on record as “+++ (“+++” means <3 uM)”.

Consider `CC(C)COc1cc(F)cc(-c2ccc(C(=O)NS(=O)(=O)c3cccc(N)n3)c(N3CC(C(C)C)CC3(C)C)n2)c1` (stereo not drawn) [Compound 2201, N-[(6-amino-2-pyridyl)sulfonyl]-6-(3-fluoro-5-isobutoxy-phenyl)-2-(4-isopropyl-2,2-dimethyl-pyrrolidin-1-yl)pyridine-3-carboxamide], for which the EC30 under setting [2] is less than 3 µM.

Take `CC1CN(c2ncccc2C(=O)NS(=O)(=O)c2cccc(Oc3ccccc3F)n2)C(C)(C)C1` (stereo not drawn) [Compound 2015, N—[[6-(2-fluorophenoxy)-2-pyridyl]sulfonyl]-2-(2,2,4-trimethylpyrrolidin-1-yl)pyridine-3-carboxamide]: under setting [2], the EC30 is less than 3 µM.

Turning to `Cc1cc(C)c(Oc2nc(-c3ccc(F)c(F)c3)ccc2C(=O)NS(=O)(=O)c2ccc[nH]c2=O)c(C)c1` [Compound 546, 6-(3,4-difluorophenyl)-N-[(2-oxo-1H-pyridin-3-yl)sulfonyl]-2-(2,4,6-trimethylphenoxy)pyridine-3-carboxamide], under setting [1], the EC30 entry was “++ (“++” means between 3 uM and 10 uM)”.

In the case of `COc1cc(Nc2cccc(S(=O)(=O)NC(=O)c3cccnc3N3CC(C)CC3(C)C)n2)cc(OC)c1` (stereo not drawn) [Compound 2357, N—[[6-(3,5-dimethoxyanilino)-2-pyridyl]sulfonyl]-2-(2,2,4-trimethylpyrrolidin-1-yl)pyridine-3-carboxamide], under setting [2], the EC30 is less than 3 µM.

On to `C[C@@H]1CN(c2nc(-c3cc(C(F)(F)F)nn3C)ccc2C(=O)NS(=O)(=O)c2cccnc2N)C(C)(C)C1` [Compound 2416, N-[(2-amino-3-pyridyl)sulfonyl]-6-[2-methyl-5-(trifluoromethyl)pyrazol-3-yl]-2-[(4S)-2,2,4-trimethylpyrrolidin-1-yl]pyridine-3-carboxamide], for which, under setting [2], the EC30 was less than 3 µM.

In the case of `C[C@@H]1CN(c2nc(-c3ccc(Cl)cc3)ccc2C(=O)NS(=O)(=O)c2ccc[nH]c2=O)C(C)(C)C1` [Compound 2028, 6-(4-chlorophenyl)-N-[(2-oxo-1H-pyridin-3-yl)sulfonyl]-2-[(4S)-2,2,4-trimethylpyrrolidin-1-yl]pyridine-3-carboxamide], the EC30 under setting [2] was less than 3 µM.

`CC1CN(c2ncccc2C(=O)NS(=O)(=O)c2cccc(OC3CCC[C@@H]3C)n2)C(C)(C)C1` (stereo in doubt) [Compound 2109, N—[[6-[(1S,2S)-2-methylcyclopentoxy]-2-pyridyl]sulfonyl]-2-(2,2,4-trimethylpyrrolidin-1-yl)pyridine-3-carboxamide]: the EC30 under setting [2] is less than 3 µM.

For `CCOCCOc1ncc(-c2ccc(C(=O)NS(=O)(=O)c3cccc(N)n3)c(N3C[C@@H](C)CC3(C)C)n2)cc1C` [Compound 2404, N-[(6-amino-2-pyridyl)sulfonyl]-6-[6-(2-ethoxyethoxy)-5-methyl-3-pyridyl]-2-[(4S)-2,2,4-trimethylpyrrolidin-1-yl]pyridine-3-carboxamide], under setting [2], the EC30 was less than 3 µM.

As to `Cc1cc(C)c(Oc2nc(-c3cc(F)cc(OCC(C)C)c3)ccc2C(=O)NS(=O)(=O)c2cccc(C(=O)O)n2)c(C)c1` [Compound 461, 6-[[6-(3-fluoro-5-isobutoxy-phenyl)-2-(2,4,6-trimethylphenoxy)pyridine-3-carbonyl]sulfamoyl]pyridine-2-carboxylic acid], the EC30 result under setting [1] is “++ (“++” means between 3 uM and 10 uM)”.

Consider `COC(=O)c1ccc(Nc2cccc(S(=O)(=O)NC(=O)c3cccnc3N3CC(C)CC3(C)C)n2)nc1` (stereo not drawn) [Compound 2140, methyl 6-[[6-[[2-(2,2,4-trimethylpyrrolidin-1-yl)pyridine-3-carbonyl]sulfamoyl]-2-pyridyl]amino]pyridine-3-carboxylate], for which the EC30 under setting [2] lay in the range of 3 to 10 µM.

For the compound `CNc1cccc(S(=O)(=O)NC(=O)c2ccc(C(C)(C)C)nc2Oc2c(C)cc(C)cc2C)n1` [Compound 262, 6-tert-butyl-N-[[6-(methylamino)-2-pyridyl]sulfonyl]-2-(2,4,6-trimethylphenoxy)pyridine-3-carboxamide], under setting [1], the EC30 result was “+++ (“+++” means <3 uM)”.

On to `COCC1CCCN(c2nc(-c3cc(F)cc(OCC(C)C)c3)ccc2C(=O)NS(=O)(=O)c2cccc(N)n2)C1` (stereo not drawn) [Compound 419, N-[(6-amino-2-pyridyl)sulfonyl]-6-(3-fluoro-5-isobutoxy-phenyl)-2-[3-(methoxymethyl)-1-piperidyl]pyridine-3-carboxamide], for which the EC30 result under setting [1] is listed as “+++ (“+++” means <3 uM)”.

Regarding `CC(C)COc1cc(F)cc(-c2ccc(C(=O)NS(=O)(=O)c3cccc(N)n3)c(N3C(C)CCC3(C)C)n2)c1` (stereo not drawn) [Compound 496, N-[(6-amino-2-pyridyl)sulfonyl]-6-(3-fluoro-5-isobutoxy-phenyl)-2-(2,2,5-trimethylpyrrolidin-1-yl)pyridine-3-carboxamide], the EC30 entry under setting [1] was “+++ (“+++” means <3 uM)”.

Turning to `COc1cc(S(=O)(=O)NC(=O)c2ccc(C(C)(C)C)nc2Oc2c(C)cc(C)cc2C)ccn1` [Compound 217, 6-tert-butyl-N-[(2-methoxy-4-pyridyl)sulfonyl]-2-(2,4,6-trimethylphenoxy)pyridine-3-carboxamide], the EC30 result under setting [1] is recorded as “+++ (“+++” means <3 uM)”.

Take `Cc1cc(C)c(Oc2nc(-c3ccc(F)cc3O)ccc2C(=O)NS(=O)(=O)c2cccc(N)n2)c(C)c1` [Compound 622, N-[(6-amino-2-pyridyl)sulfonyl]-6-(4-fluoro-2-hydroxy-phenyl)-2-(2,4,6-trimethylphenoxy)pyridine-3-carboxamide]: under setting [1], the EC30 result is reported as “+++ (“+++” means <3 uM)”.

Regarding `Cc1ccc(-c2ccc(C(=O)NS(=O)(=O)c3cccnc3N)c(N3C[C@@H](C)CC3(C)C)n2)cc1` [Compound 2132, N-[(2-amino-3-pyridyl)sulfonyl]-6-(p-tolyl)-2-[(4S)-2,2,4-trimethylpyrrolidin-1-yl]pyridine-3-carboxamide], the EC30 under setting [2] was less than 3 µM.

Broadly, the EC30 is the concentration at which the effect reaches the 30% level.
